Reference: PubChem BioAssay (NCI)
“And” between values parts separate entries of the source, which are not always exact repeats. Identical values can stand only once.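 Grown in 96-well plates, cells were treated for 48 hours with each compound at five concentrations. Insufficient inhibition: endpoint recorded as highest concentration tested. GI50: concentration for 50% inhibition of growth. TGI denotes the concentration required for complete inhibition of growth.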

Key:
Assay in all cases: inhibition of tumour cell growth, NCI panel, 48 h
DMS 273 small cell lung = system: DMS 273 small cell lung
HOP-92 NSCLC = system: HOP-92 NSCLC
NCI/ADR-RES ovarian = system: NCI/ADR-RES ovarian
OVCAR-5 ovarian = system: OVCAR-5 ovarian
SK-MEL-28 melanoma = system: SK-MEL-28 melanoma
UACC-62 melanoma = system: UACC-62 melanoma
CCRF-CEM leukemia = system: CCRF-CEM leukemia
KM20L2 colon = system: KM20L2 colon
OVCAR-8 ovarian = system: OVCAR-8 ovarian
MDA-MB-435 = system: MDA-MB-435

SMILES	TGI (DMS 273 small cell lung) [µM]	TGI (HOP-92 NSCLC)	TGI (NCI/ADR-RES ovarian)	TGI (OVCAR-5 ovarian)	TGI (SK-MEL-28 melanoma)	TGI (UACC-62 melanoma)	TGI (CCRF-CEM leukemia)	TGI (KM20L2 colon) [µM]	TGI (OVCAR-8 ovarian)	GI50 (HOP-92 NSCLC) [µM]	GI50 (NCI/ADR-RES ovarian) [µM]	GI50 (OVCAR-5 ovarian) [µM]	GI50 (SK-MEL-28 melanoma)	GI50 (UACC-62 melanoma) [µM]	GI50 (CCRF-CEM leukemia)	GI50 (OVCAR-8 ovarian)	TGI (MDA-MB-435) [µM]
CNC(=O)c1cccc2c(Nc3ccc(NS(C)(=O)=O)cc3OC)c3cccc(C)c3nc12	1.69	3.67 µM	9.36 µM	3.54 µM	10.9 µM	1.38 µM	0.197 µM	3.72	5.98 µM	–	–	–	–	–	–	–	–
O=c1oc(=O)c2oc3ccccc3oc1=2	> 100	> 100 µM	–	> 100 µM	> 100 µM	> 100 µM	> 100 µM	> 100	> 100 µM	–	–	–	–	–	–	–	–
COc1cc(O)c2c(c1)C(=O)c1cc3c(c(O)c1C2=O)C(OC1OC(C)C(O)C(O)C1OC)C(OC)C(C)(O)C3=O (stereo not given)	3.85	8.49 µM and 1.81 µM	15.8 µM and 11 µM	8.48 µM and 9.24 µM	5.97 µM and 5.4 µM	3.16 µM and 4.1 µM	> 100 µM and 74.1 µM	6	5.27 µM and 1.62 µM	2	2.86	2.18	2.24 µM and 1.74 µM	1.68	3.07 µM and 13.4 µM	1.42 µM and 0.373 µM	–
CCOC(=O)/C(C#N)=C1/C(O)=C(C(=O)OC)C(C(=O)OC)=C1C(=O)OC	> 100	> 100 µM	–	> 100 µM	> 100 µM	> 100 µM	> 100 µM	> 100	> 100 µM	–	–	–	–	–	–	–	–
COc1ccc2nc3ccccc3c(NCCCN(C)CCCl)c2c1	1.36	1.24 µM	–	3.4 µM	2.01 µM	2.05 µM	1.58 µM	2.5	2.02 µM	–	–	–	–	–	–	–	1.54
